Patent US20260262643A1, “HERBICIDAL BENZOXAZINES” (FMC CORPORATION, priority 2022, published 2026)

Columns and labels:
barnyardgrass [1] = assay: Test C preemergence; assay type: in vivo, Echinochloa crusgalli; conditions: Preemergence
Procedure, shortened: (§1)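 Soil-applied (pre) and foliar (post, 1–2 leaf, 2–10 cm) sprays; surfactant-containing non-phytotoxic solvent vehicle; loam/sand substrate. Readout: visual % control at 10 d, greenhouse, versus untreated.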

blackgrass [2] = assay: Test C preemergence; assay type: in vivo, Alopecurus myosuroides; conditions: Preemergence
Procedure, shortened: as §1

corn [3] = assay: Test C preemergence; assay type: in vivo, Zea mays; conditions: Preemergence, 125 g ai/ha; 0 to 100 scale, 0 no effect, 100 complete control
Procedure, shortened: as §1

green foxtail [4] = assay: Test C preemergence; assay type: in vivo, Setaria viridis; conditions: Preemergence
Procedure, shortened: as §1

kochia [5] = assay: Test C preemergence; assay type: in vivo, Bassia scoparia; conditions: Preemergence
Procedure, shortened: as §1

oat, wild [6] = assay: Test C preemergence; assay type: in vivo, Avena fatua; conditions: Preemergence, 125 g ai/ha; 0 to 100 scale, 0 no effect, 100 complete control
Procedure, shortened: as §1

pigweed, palmer [7] = assay: Test C preemergence; assay type: in vivo, Amaranthus palmeri; conditions: Preemergence
Procedure, shortened: as §1

ragweed [8] = assay: Test C preemergence; assay type: in vivo, Ambrosia artemisiifolia; conditions: Preemergence
Procedure, shortened: as §1

ryegrass, Italian [9] = assay: Test C preemergence; assay type: in vivo, Lolium multiflorum; conditions: Preemergence
Procedure, shortened: as §1

soybean = assay: Test C preemergence; assay type: in vivo, Glycine max; conditions: Preemergence, 125 g ai/ha; 0 to 100 scale, 0 no effect, 100 complete control
Procedure, shortened: as §1

wheat = assay: Test C preemergence; assay type: in vivo, Triticum aestivum; conditions: Preemergence, 125 g ai/ha; 0 to 100 scale, 0 no effect, 100 complete control
Procedure, shortened: as §1

barnyardgrass [10] = assay: Test C postemergence; assay type: in vivo, Echinochloa crusgalli
Procedure, shortened: as §1

blackgrass [11] = assay: Test C postemergence; assay type: in vivo, Alopecurus myosuroides; conditions: 10 days
Procedure, shortened: as §1

corn [12] = assay: Test C postemergence; assay type: in vivo, Zea mays; conditions: 500 g ai/ha, postemergence, 10 days, 0 to 100 scale (0 no effect, 100 complete control)
Procedure, shortened: as §1

green foxtail [13] = assay: Test C postemergence; assay type: in vivo, Setaria viridis; conditions: 10 days
Procedure, shortened: as §1

kochia [14] = assay: Test C postemergence; assay type: in vivo, Bassia scoparia; conditions: 10 days
Procedure, shortened: as §1

oat, wild [15] = assay: Test C postemergence; assay type: in vivo, Avena fatua; conditions: 500 g ai/ha, postemergence, 10 days, 0 to 100 scale (0 no effect, 100 complete control)
Procedure, shortened: as §1

pigweed, palmer [16] = assay: Test C postemergence; assay type: in vivo, Amaranthus palmeri; conditions: 10 days
Procedure, shortened: as §1

horseweed = assay: Test C postemergence; assay type: in vivo, Erigeron canadensis; conditions: 10 days
Procedure, shortened: as §1

barnyardgrass [17] = assay: Test D flooded paddy test; assay type: in vivo, Echinochloa crus-galli; conditions: 250 g ai/ha, applied to paddy water, visual rating after 13 to 14 days, scale 0 to 100 (0 no effect, 100 complete control)
Procedure, shortened: (§2)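 Post-flood water application at the 2-leaf stage; 3 cm flood depth kept constant; visual control rating 0–100 after 13–14 days greenhouse growth.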

ducksalad = assay: Test D flooded paddy test; assay type: in vivo, Heteranthera limosa; conditions: 250 g ai/ha, applied to paddy water, visual rating after 13 to 14 days, scale 0 to 100 (0 no effect, 100 complete control)
Procedure, shortened: as §2

rice = assay: Test D flooded paddy test; assay type: in vivo, Oryza sativa; conditions: 250 g ai/ha, applied to paddy water, visual rating after 13 to 14 days, scale 0 to 100 (0 no effect, 100 complete control)
Procedure, shortened: as §2

sedge, umbrella = assay: Test D flooded paddy test; assay type: in vivo, Cyperus difformis; conditions: 250 g ai/ha, applied to paddy water, visual rating after 13 to 14 days, scale 0 to 100 (0 no effect, 100 complete control)
Procedure, shortened: as §2

ragweed [18] = assay: Test C postemergence; assay type: in vivo, Ambrosia artemisiifolia; conditions: Postemergence, 1000 g ai/ha, 10 days, visual 0 to 100 scale (0 no effect, 100 complete control)
Procedure, shortened: as §1

ryegrass, Italian [19] = assay: Test C postemergence; assay type: in vivo, Lolium multiflorum; conditions: Postemergence, 1000 g ai/ha, 10 days, visual 0 to 100 scale (0 no effect, 100 complete control)
Procedure, shortened: as §1

galium = assay: Test C postemergence; assay type: in vivo, Galium aparine; conditions: Postemergence, 1000 g ai/ha, 10 days, visual 0 to 100 scale (0 no effect, 100 complete control)
Procedure, shortened: as §1

[20] = 125 g ai/ha, 0 to 100 scale, 0 no effect, 100 complete control
[21] = 500 g ai/ha, postemergence, 0 to 100 scale (0 no effect, 100 complete control)
[22] = 1000 g ai/ha, visual rating after 10 days, 0 to 100 scale (0 no effect, 100 complete control)
[23] = Postemergence, 1000 g ai/ha, visual 0 to 100 scale (0 no effect, 100 complete control)

## CCOC[C@H]1CN(C(=O)c2cc(-n3cnc(C(C)C)n3)cc3c2OCO3)c2cccc(Cl)c2O1 [Compound 400]
Barnyardgrass [1]; [20]
  Plant response rating, Barnyardgrass: 50
Blackgrass [2]; [20]
  Plant response rating, Blackgrass: 0
Corn [3]
  Plant response rating, Corn: 0
Green foxtail [4]; [20]
  Plant response rating, Foxtail, Green: 70
Kochia [5]; [20]
  Plant response rating, Kochia: 50
oat, wild [6]
  Plant response rating, Oat, Wild: 0
pigweed, palmer [7]; [20]
  Plant response rating, Pigweed, Palmer: 100
Ragweed [8]; [20]
  Plant response rating, Ragweed: 30
ryegrass, Italian [9]; [20]
  Plant response rating, Ryegrass, Italian: 60
soybean
  Plant response rating, Soybean: 20
wheat
  Plant response rating, Wheat: 0
Barnyardgrass [10]; 500 g ai/ha, postemergence, 10 days, 0 to 100 scale (0 no effect, 100 complete control)
  Plant response rating, Barnyardgrass: 50
Blackgrass [11]; [21]
  Plant response rating, Blackgrass: 70
Corn [12]
  Plant response rating, Corn: 50
Green foxtail [13]; [21]
  Plant response rating, Foxtail, Green: 40
Kochia [14]; [21]
  Plant response rating, Kochia: 90
oat, wild [15]
  Plant response rating, Oat, Wild: 20
pigweed, palmer [16]; [21]
  Plant response rating, Pigweed, Palmer: 100
horseweed; [21]
  Plant response rating, Horseweed: 20
Barnyardgrass [17]
  Plant response rating, Barnyardgrass (Flood): 15
ducksalad
  Plant response rating, Ducksalad (Flood): 45
rice
  Plant response rating, Rice (Flood): 0
sedge, umbrella
  Plant response rating, Sedge, Umbrella (Flood): 40

## Cc1cnn(-c2cccc(C(=O)N3C[C@H](C)Oc4c(Cl)cccc43)c2)c1 [Compound 207]
Barnyardgrass [1]; [22]
  Plant response rating, Barnyardgrass: 90
Blackgrass [2]; [22]
  Plant response rating, Blackgrass: 20
Green foxtail [4]; [22]
  Plant response rating, Foxtail, Green: 90
Kochia [5]; [22]
  Plant response rating, Kochia: 30
pigweed, palmer [7]; [22]
  Plant response rating, Pigweed, Palmer: 90
Ragweed [8]; [22]
  Plant response rating, Ragweed: 0
ryegrass, Italian [9]; [22]
  Plant response rating, Ryegrass, Italian: 90
Barnyardgrass [10]; Postemergence, 1000 g ai/ha, 0 to 100 scale, 0 no effect, 100 complete control
  Plant response rating, Barnyardgrass: 30
Blackgrass [11]; [23]
  Plant response rating, Blackgrass: 10
Green foxtail [13]; [23]
  Plant response rating, Foxtail, Green: 10
Kochia [14]; [23]
  Plant response rating, Kochia: 20
pigweed, palmer [16]; [23]
  Plant response rating, Pigweed, Palmer: 90
Ragweed [18]
  Plant response rating, Ragweed: 10
ryegrass, Italian [19]
  Plant response rating, Ryegrass, Italian: 70
galium
  Plant response rating, Galium: 10
horseweed; [23]
  Plant response rating, Horseweed: 10
Barnyardgrass [17]
  Plant response rating, Barnyardgrass (Flood): 0
ducksalad
  Plant response rating, Ducksalad (Flood): 0
rice
  Plant response rating, Rice (Flood): 0
sedge, umbrella
  Plant response rating, Sedge, Umbrella (Flood): 0
